Measured values published in patent US12637428B2, “Isoquinoline derivatives as SIK2 inhibitors” (Cancer Research Technology Limited, priority 2019, dated 2026).

Tests used:
Format in all cases: biochemical
EPHA2 = target: T1, EPHA2 (Homo sapiens, UniProt P29317); assay: EPHA2 kinase assay, IMAP fluorescence polarization; details: 50 or 100 μM ATP, Tris pH 8.5, average
T1 construct: purchased Life Technologies

SIK2 = target: T2, SIK2 (Homo sapiens, UniProt Q9H0K1); assay: SIK2 kinase assay, IMAP fluorescence polarization; details: 50 or 100 μM ATP, average
T2 construct: purchased Life Technologies
In short: (§1)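 Dose-response over 0.00005-1 μM compound in 20 mM Tris pH 7.2 containing 4 mM MgCl2, 0.2% BSA and 2 mM DTT, with 50 or 100 μM ATP and 100 nM FAM-labelled peptide. Kinase 0.6-13 nM, 60 min at room temperature; IMAP FP readout, inhibition normalized to no-inhibitor and no-enzyme controls.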

SIK3 = target: T3, SIK3 (Homo sapiens, UniProt Q9Y2K2); assay: SIK3 kinase assay, IMAP fluorescence polarization; details: 50 or 100 μM ATP, average
T3 construct: purchased Life Technologies
In short: as §1

Src = target: T4, Src (Homo sapiens, UniProt P12931); assay: Src kinase assay, IMAP fluorescence polarization; details: 50 or 100 μM ATP, average
T4 construct: purchased Life Technologies
In short: as §1

Abl = target: T5, Abl (Homo sapiens, UniProt P00519); assay: Abl kinase assay, IMAP fluorescence polarization; details: 50 or 100 μM ATP, average
T5 construct: purchased Life Technologies
In short: as §1

SIK1 = target: T6, SIK1 (Homo sapiens, UniProt P57059); assay: SIK1 kinase assay, IMAP fluorescence polarization; details: 50 or 100 μM ATP, average
T6 construct: purchased Life Technologies
In short: as §1

T5 sequence (P00519 whole entry): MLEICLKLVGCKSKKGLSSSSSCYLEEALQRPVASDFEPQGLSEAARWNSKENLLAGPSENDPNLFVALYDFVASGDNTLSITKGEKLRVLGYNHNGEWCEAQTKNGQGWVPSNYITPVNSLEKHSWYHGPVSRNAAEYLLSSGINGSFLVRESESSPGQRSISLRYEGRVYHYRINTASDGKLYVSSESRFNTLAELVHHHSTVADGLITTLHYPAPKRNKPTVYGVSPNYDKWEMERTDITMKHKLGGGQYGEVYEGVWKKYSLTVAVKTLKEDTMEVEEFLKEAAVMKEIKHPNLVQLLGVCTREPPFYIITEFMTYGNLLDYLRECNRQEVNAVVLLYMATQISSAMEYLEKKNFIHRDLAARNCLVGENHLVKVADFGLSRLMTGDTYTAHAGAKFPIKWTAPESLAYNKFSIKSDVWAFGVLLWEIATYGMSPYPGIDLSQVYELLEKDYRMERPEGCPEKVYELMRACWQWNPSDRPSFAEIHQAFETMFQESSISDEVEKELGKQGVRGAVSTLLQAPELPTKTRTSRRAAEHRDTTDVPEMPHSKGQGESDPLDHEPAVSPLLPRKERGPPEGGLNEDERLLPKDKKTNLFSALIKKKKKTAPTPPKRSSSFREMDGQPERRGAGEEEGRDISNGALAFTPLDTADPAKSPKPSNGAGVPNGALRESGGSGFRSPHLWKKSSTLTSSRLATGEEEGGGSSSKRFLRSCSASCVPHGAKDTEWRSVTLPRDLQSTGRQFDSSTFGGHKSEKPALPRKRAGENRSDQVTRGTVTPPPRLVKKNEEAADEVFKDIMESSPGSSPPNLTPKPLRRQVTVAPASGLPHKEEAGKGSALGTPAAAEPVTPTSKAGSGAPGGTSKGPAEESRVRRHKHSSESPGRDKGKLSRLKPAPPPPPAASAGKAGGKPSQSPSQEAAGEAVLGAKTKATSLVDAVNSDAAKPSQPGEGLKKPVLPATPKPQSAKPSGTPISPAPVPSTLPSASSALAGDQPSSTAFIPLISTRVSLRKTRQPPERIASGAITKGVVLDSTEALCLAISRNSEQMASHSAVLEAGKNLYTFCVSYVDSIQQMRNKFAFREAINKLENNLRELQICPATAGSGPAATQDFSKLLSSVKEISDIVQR
T4 sequence (P12931 whole entry): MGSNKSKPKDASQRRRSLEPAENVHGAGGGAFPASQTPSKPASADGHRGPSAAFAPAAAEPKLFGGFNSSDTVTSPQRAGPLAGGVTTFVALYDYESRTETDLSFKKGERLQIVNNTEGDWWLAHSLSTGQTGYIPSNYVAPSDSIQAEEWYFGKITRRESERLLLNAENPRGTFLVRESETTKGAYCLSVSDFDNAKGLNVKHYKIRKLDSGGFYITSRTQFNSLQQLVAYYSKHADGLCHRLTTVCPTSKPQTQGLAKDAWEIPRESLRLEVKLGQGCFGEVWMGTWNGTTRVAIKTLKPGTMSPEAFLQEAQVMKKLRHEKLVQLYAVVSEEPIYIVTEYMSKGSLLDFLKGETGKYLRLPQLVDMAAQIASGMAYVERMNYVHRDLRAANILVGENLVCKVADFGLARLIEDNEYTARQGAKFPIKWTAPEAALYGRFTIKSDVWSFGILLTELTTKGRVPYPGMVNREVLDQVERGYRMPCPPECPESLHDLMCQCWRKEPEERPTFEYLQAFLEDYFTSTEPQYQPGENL
T6 sequence (P57059 whole entry): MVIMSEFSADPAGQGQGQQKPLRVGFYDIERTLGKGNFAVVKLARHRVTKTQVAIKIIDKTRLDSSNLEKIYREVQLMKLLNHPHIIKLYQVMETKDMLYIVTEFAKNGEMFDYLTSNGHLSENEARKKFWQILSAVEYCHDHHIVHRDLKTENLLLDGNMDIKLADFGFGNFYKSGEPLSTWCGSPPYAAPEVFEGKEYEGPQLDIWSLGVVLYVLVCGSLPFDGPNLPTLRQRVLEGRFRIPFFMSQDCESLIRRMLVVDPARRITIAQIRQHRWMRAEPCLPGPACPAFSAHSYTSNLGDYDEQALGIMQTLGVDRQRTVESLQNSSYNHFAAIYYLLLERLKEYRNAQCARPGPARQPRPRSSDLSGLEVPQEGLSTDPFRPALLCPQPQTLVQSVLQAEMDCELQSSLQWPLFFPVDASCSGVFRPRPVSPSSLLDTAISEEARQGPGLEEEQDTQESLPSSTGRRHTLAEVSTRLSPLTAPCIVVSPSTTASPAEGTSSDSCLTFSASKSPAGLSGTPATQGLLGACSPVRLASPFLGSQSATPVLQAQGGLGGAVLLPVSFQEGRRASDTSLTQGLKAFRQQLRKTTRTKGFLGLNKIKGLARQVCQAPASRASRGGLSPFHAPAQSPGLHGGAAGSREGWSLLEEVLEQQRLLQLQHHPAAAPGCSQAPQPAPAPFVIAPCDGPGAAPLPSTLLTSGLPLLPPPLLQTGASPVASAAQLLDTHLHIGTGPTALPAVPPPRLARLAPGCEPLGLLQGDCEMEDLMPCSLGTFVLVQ
T2 sequence (Q9H0K1 whole entry): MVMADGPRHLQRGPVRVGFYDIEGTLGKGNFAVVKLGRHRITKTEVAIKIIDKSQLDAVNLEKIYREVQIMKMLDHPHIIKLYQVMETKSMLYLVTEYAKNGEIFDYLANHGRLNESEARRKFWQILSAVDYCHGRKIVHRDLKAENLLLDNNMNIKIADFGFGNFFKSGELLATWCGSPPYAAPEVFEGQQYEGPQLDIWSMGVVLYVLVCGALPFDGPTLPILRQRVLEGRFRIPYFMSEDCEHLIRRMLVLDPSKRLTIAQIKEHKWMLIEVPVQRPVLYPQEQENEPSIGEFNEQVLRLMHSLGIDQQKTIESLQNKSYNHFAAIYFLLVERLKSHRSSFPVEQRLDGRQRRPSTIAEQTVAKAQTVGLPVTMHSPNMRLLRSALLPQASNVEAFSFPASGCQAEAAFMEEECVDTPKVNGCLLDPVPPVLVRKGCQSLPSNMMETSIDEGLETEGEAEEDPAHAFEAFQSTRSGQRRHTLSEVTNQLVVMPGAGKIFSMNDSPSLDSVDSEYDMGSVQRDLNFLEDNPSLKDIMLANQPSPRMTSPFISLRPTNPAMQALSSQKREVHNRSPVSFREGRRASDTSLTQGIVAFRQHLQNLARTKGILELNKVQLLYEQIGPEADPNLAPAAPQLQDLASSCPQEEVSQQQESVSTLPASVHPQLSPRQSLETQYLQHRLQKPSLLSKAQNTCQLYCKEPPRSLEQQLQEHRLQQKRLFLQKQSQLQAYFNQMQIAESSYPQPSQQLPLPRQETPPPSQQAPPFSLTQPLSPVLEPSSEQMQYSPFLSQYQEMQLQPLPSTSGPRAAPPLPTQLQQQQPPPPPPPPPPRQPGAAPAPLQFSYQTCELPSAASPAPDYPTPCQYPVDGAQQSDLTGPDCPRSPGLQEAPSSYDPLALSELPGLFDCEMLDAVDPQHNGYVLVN
T3 sequence (Q9Y2K2 whole entry): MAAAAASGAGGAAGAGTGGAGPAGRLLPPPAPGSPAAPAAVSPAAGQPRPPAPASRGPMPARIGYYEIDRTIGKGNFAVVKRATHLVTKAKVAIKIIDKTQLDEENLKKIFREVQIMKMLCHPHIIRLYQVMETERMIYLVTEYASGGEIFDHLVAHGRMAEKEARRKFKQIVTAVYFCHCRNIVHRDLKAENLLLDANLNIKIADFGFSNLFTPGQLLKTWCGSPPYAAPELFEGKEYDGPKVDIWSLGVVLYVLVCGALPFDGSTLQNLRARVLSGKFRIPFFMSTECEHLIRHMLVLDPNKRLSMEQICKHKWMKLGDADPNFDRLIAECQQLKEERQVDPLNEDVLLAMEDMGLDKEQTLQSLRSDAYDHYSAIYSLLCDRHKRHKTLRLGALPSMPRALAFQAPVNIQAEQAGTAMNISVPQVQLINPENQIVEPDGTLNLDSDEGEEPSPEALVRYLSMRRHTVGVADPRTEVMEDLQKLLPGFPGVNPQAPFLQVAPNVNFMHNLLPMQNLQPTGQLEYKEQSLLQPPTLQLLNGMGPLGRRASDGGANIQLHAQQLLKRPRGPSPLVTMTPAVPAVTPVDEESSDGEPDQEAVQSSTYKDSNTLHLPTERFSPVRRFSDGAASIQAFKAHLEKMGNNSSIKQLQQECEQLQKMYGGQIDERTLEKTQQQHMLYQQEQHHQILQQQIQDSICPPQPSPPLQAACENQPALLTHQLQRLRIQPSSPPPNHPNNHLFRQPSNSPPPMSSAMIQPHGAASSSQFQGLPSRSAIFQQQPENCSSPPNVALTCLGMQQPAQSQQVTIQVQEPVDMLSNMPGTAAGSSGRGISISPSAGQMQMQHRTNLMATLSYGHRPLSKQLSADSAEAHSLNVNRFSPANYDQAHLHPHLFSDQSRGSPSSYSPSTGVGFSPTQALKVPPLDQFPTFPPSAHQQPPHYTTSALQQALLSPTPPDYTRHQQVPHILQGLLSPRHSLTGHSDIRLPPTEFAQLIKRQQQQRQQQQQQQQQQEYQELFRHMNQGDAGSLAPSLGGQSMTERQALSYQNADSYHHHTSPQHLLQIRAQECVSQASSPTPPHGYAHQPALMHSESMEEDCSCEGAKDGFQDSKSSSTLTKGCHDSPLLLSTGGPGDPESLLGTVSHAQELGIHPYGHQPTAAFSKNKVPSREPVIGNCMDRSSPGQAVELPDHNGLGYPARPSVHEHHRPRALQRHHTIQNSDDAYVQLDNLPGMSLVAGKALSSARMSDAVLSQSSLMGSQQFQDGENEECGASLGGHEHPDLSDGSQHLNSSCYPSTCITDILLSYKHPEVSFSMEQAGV

Structure (SMILES) | Ki (EPHA2) [nM] | Ki (SIK2) [nM] | Ki (SIK3) [nM] | Ki (Src) [nM] | Ki (Abl) [nM] | Ki (SIK1) [nM]
Cc1cccc(Cl)c1-c1cc(NC2CN(C)C2)c2ccncc2c1 [Example 67, 7-(2-chloro-6-methyl-phenyl)-N-(1-methylazetidin-3-yl)isoquinolin-5-amine] | 50.4 | 11.8 | 27.2 | 249 | 92.9 | 10.4
Cc1cccc(F)c1-c1cc(NC2CN(C)C2)c2cc(N)ncc2c1 [Example 68, 7-(2-Fluoro-6-methyl-phenyl)-N5-(1-methylazetidin-3-yl)isoquinoline-3,5-diamine] | 323 | 0.1 | 0.993 | 160 | 17.8 | 0.532
Cc1cccc(F)c1-c1cc(N[C@@H]2CCN(C)C2)c2cc(N)ncc2c1 [Example 69, 7-(2-fluoro-6-methyl-phenyl)-N5-[(3R)-1-methylpyrrolidin-3-yl]isoquinoline-3,5-diamine] | > 1000 | 0.0972 | 0.986 | 35.8 | 5.14 | 0.3
Cc1cccc(F)c1-c1cc(N[C@H]2CCN(C)C2)c2cc(N)ncc2c1 [Example 70, 7-(2-fluoro-6-methyl-phenyl)-N5-[(3S)-1-methylpyrrolidin-3-yl]isoquinoline-3,5-diamine] | 74.6 | 0.111 | 4.14 | 84.8 | 9.94 | 0.439
Cc1cccc(F)c1-c1cc(NCC2CCN(C)CC2)c2cc(N)ncc2c1 [Example 71, 7-(2-fluoro-6-methyl-phenyl)-N5-[(1-methyl-4-piperidyl)methyl] isoquinoline-3,5-diamine] | > 1000 | 0.486 | 5.67 | 149 | 15.6 | 1.17
Cc1cccc(F)c1-c1cc(NCC2CN(C)C2)c2cc(N)ncc2c1 [Example 72, 7-(2-fluoro-6-methyl-phenyl)-N5-[(1-methylazetidin-3-yl)methyl] isoquinoline-3,5-diamine] | 153 | 0.117 | 1.29 | 40.1 | 1.83 | 0.627
Cc1cccc(F)c1-c1cc(NC[C@H]2CCCN2C)c2cc(N)ncc2c1 [Example 73, 7-(2-fluoro-6-methyl-phenyl)-N5-[[(2R)-1-methylpyrrolidin-2-yl]methyl] isoquinoline-3,5-diamine] | 251 | 0.0693 | 0.528 | 98.1 | 6.45 | 0.498
Cc1cccc(F)c1-c1cc(NC[C@@H]2CCN(C)C2)c2cc(N)ncc2c1 [Example 74, 7-(2-fluoro-6-methyl-phenyl)-N5-[[(3S)-1-methylpyrrolidin-3-yl]methyl]isoquinoline-3,5-diamine] | 66.1 | 0.101 | 0.765 | > 1000 | 0.505 | 0.461
Cc1cccc(F)c1-c1cc(NC[C@H]2CCN(C)C2)c2cc(N)ncc2c1 [Example 75, 7-(2-fluoro-6-methyl-phenyl)-N5-[[(3R)-1-methylpyrrolidin-3-yl]methyl] isoquinoline-3,5-diamine] | 120 | 0.19 | 2 | 45.2 | 10.3 | 0.618
Cc1cccc(F)c1-c1cc(NC[C@@H]2CCCN(C)C2)c2cc(N)ncc2c1 [Example 76, 7-(2-fluoro-6-methyl-phenyl)-N5-[[(3S)-1-methyl-3-piperidyl]methyl]isoq uinoline-3,5-diamine] | 16.6 | 0.188 | 1.64 | 12.7 | 2 | 0.516
Cc1cccc(F)c1-c1cc(NC[C@H]2CCCN(C)C2)c2cc(N)ncc2c1 [Example 77, 7-(2-fluoro-6-methyl-phenyl)-N5-[[(3R)-1-methyl-3-piperidyl]methyl] isoquinoline-3,5-diamine] | 80.1 | 0.302 | 3.74 | 197 | 26.5 | 1.13
Cc1cccc(F)c1-c1cc(NC[C@@H]2CCCCN2C)c2cc(N)ncc2c1 [Example 78, 7-(2-fluoro-6-methyl-phenyl)-N5-[[(2S)-1-methyl-2-piperidyl]methyl]isoq uinoline-3,5-diamine] | 119 | 0.0935 | 1.6 | 43.3 | 6.85 | 0.433
Cc1cccc(F)c1-c1cc(N2CC(N(C)C)C2)c2cc(N)ncc2c1 [Example 79, 5-[3-(dimethylamino)azetidin-1-yl]-7-(2-fluoro-6-methyl-phenyl)isoquinolin-3-amine] | 84.1 | 0.101 | 2.24 | 106 | 12.7 | 0.747
Cc1cccc(F)c1-c1cc(N[C@@H]2CCCCN(C)C2)c2cc(N)ncc2c1 [Example 80, 7-(2-fluoro-6-methyl-phenyl)-N5-[(3R)-1-methylazepan-3-yl]isoquinoline-3,5-diamine] | > 1000 | 0.448 | 4.9 | 48.6 | 15.2 | 0.905
Cc1cccc(F)c1-c1cc(N2CCC[C@H](N(C)C)C2)c2cc(N)ncc2c1 [Example 82, 5-[(3S)-3-(dimethylamino)-1-piperidyl]-7-(2-fluoro-6-methyl-phenyl)isoquinolin-3-amine] | > 1000 | 0.269 | 10.3 | 93.9 | 10.4 | 1.25
CNc1cc2c(N3CCC[C@H](N(C)C)C3)cc(-c3c(C)cccc3F)cc2cn1 [Example 83, 5-[(3S)-3-(dimethylamino)-1-piperidyl]-7-(2-fluoro-6-methyl-phenyl)-N-methyl-isoquinolin-3-amine] | > 1000 | 0.316 | 7.35 | 97.8 | 9.38 | 0.55
Cc1cccc(F)c1-c1cc(N2CCC[C@@H](N(C)C)C2)c2cc(N)ncc2c1 [Example 84, 5-[(3R)-3-(dimethylamino)-1-piperidyl]-7-(2-fluoro-6-methyl-phenyl)isoquinolin-3-amine] | > 1000 | 0.0819 | 2.23 | 274 | 49.4 | 0.409
Cc1cccc(F)c1-c1cc(N[C@@H]2CCCN(C)C2)c2cc(N)ncc2c1 [Example 85, 7-(2-fluoro-6-methyl-phenyl)-N5-[(3R)-1-methyl-3-piperidyl]isoquinoline-3,5-diamine] | 258 | 0.0911 | 1.62 | 40.2 | 7.38 | 0.611
Cc1cccc(F)c1-c1cc(N[C@H]2CCCN(C)C2)c2cc(N)ncc2c1 [Example 86, 7-(2-fluoro-6-methyl-phenyl)-N5-[(3S)-1-methyl-3-piperidyl] isoquinoline-3,5-diamine] | 22.3 | 0.0838 | 1.98 | 34.3 | 6.72 | 0.656
Cc1cccc(F)c1-c1ccc2c(C(=O)NC3CN(C)C3)c(N)ncc2c1 [Example 89, 3-Amino-7-(2-fluoro-6-methyl-phenyl)-N-(1-methylazetidin-3-yl)isoquinoline-4-carboxamide] | 1850 | 5.31 | 130 | 1040 | 83.7 | 53.2
